Structure (SMILES) | melting point [°C]
CCOC(=O)C(=NOC(C)C)c1csc(N)n1 | 162 to 164
COc1cc(NC(=O)Nc2c(-c3ccccc3C)c3cc(C)c(C)cc3oc2=O)cc(OC)c1OC(C)=O | 238 to 240
COC(=O)CCCCNC(=O)[C@H](Cc1ccccc1)NC(=O)OC(C)(C)C | 98 to 100
CCn1nnc(-c2ccc(CN3CCC(C(O)(c4ccc5c(c4)OC(F)(F)O5)c4ccc5c(c4)OC(F)(F)O5)CC3)cc2)n1 | 79 to 81
OCCON=Cc1ccc(-c2ccccc2)cc1 | 116 to 118
COCc1cc(-c2ncn(-c3cccc(Oc4ccccc4)c3)c2C)on1 | 83
C=CCc1c(O)ccc2c(=O)cc(C(=O)OCC)oc12 | 164 to 165
C#CCOC(=O)C=CC(=O)OCC#C | 78 to 80
Cc1cn(C(C)(C(=O)N(C)C)c2ccccc2)nc1-c1ccccc1 (stereo not drawn) | 107 to 109
CC(C)C(C(=O)O)N1C(=O)C2C3C=CC(CC3)C2C1=O (stereo not drawn) | 156
O=Cc1cc(Br)ccc1N1CC=CC1 | 88.2 to 89.2
Cc1c(NC(=O)c2cccc(OCc3ccccc3)c2)ccc2cc(CN3CCCC3)cnc12 | 148 to 149
Cn1c2cc(Cl)ccc2c2c(CC#N)nn(-c3ccccc3)c(=O)c21 | 305 to 315
O=S(=O)(Nc1ccc2c(OCc3ccc(Br)cc3F)cccc2c1)C(F)(F)F | 123 to 125
Cc1cc(Oc2ncc(C(F)(F)F)cc2Cl)nn1C(=O)Nc1cccc([N+](=O)[O-])c1 | 172 to 174
CCOc1cccnc1CSCCNC(=C[N+](=O)[O-])NC | 130 to 131
CCOC(=O)C(C(=O)Nc1cc(OC)c(OC)c(OC)c1)(c1ccccc1)c1ccccc1 | 109 to 111
CSc1cc(C(F)(F)F)ccc1C(=O)CC(=O)C1CC1 | 64
NC(=O)c1cnn2c(-c3ccccc3)ccnc12 | 236 to 238
CCOC(=O)CCCCCn1c(-c2ccccc2)c(-c2ccccc2)n(-c2ccccc2)c1=O | 104 to 106
Cn1nccc1COC(=O)Cc1ccccc1 | 80 to 83
Cc1ccc2c(c1C)OCC(NNc1ncnc3c1ncn3C1OC(CO)C(O)C1O)C2 (stereo not drawn) | 170 to 172
CC1(C)Oc2ccc(S(=O)(=O)C(F)(F)F)cc2[C@@H](N2Cc3ccc([N+](=O)[O-])cc3C2=O)[C@@H]1O (relative stereo) | 264 to 266
Cn1cc(-c2cc(-c3c[nH]nc3-c3ccccn3)ccc2F)cn1 | 134 to 136
CON=C(C)c1nc(-c2cccnc2)[nH]c1C | 203 to 205

Structure (SMILES) | melting point [°C]
CC(=O)N(C)N(C(=O)OC(C)(C)C)c1ccc(CC#N)cc1 | 74 to 75
CCOC(=O)c1ccc(OC)nc1C(F)(F)F | 150 to 152
CN1CCC(OC(c2cccc(O)c2)c2nc3ccccc3s2)CC1 (stereo not drawn) | 201
COc1ccccc1NC(=O)Nc1ccc(CC(=O)OC(C)(C)C)cc1C | 157 to 158
Nc1ncc2ncn(OC(CO)CCO)c2n1 (stereo not drawn) | 178 to 179
CCCc1nc2c(N)nc3cc(OCCN4CCCCC4)ccc3c2s1 | 141 to 143
FCCCCNc1cn(-c2cccnc2)nc1Cl | 82 to 83
O=C(O)Cc1ccc(NC(=O)C(COC2CCCCO2)NS(=O)(=O)c2ccc(Cl)c([N+](=O)[O-])c2)cc1 (racemic) | 131 to 140
COc1ccc(S(=O)(=O)Nc2cccc3c2Nc2ccc(C#N)cc2CN3)cc1 | 105 to 107
CC(=O)c1cccc2c1ncn2-c1cccc([N+](=O)[O-])c1 | 175 to 177
O=c1c2ccccc2nc(CCl)n1-c1ccccc1 | 152 to 153
CCOC(=O)c1nnc2ccc(NC(=O)c3ccccc3OC(C)=O)cc2c1O | 240 to 242
CCN(CC)C(=O)c1cc2ccsc2c(-c2ccccc2Cl)n1 | 86
COc1cc(C)c(C=CC=CC=C(C)C(=O)O)c(C)c1C | 179 to 180
CC(=O)Nc1ccc(C(=O)Oc2ccccc2)c(OC(C)=O)c1 | 142 to 143
Cc1c(C(=O)Nc2cc(Cl)c(N3CCC(N4CCOCC4)CC3)c(Cl)c2)cnn1-c1ccc(C(F)(F)F)cc1 | 252 to 254
CN(C)C(=O)N(N)c1ccc(F)c(Cl)c1 | 88 to 89
CCCc1nc2c(N)nc3ccccc3c2n1CCCCNC(=O)c1ccccc1 | 173 to 174
CCCCCCCCCCCCCN1CC(=O)C(C#N)=C1N | 214 to 215
N#Cc1ccc(-c2cc3ccccc3[nH]c2=S)cc1 | 284 to 289
CC(=O)c1ccc2c(c1)c1ccccc1n2CCCCl | 109 to 111
O=c1cc(-c2cccnc2)oc2ccccc12 | 123 to 124
CCC1(CCSC(C)=O)C(=O)N2CCCC(C(=O)OC(C)(C)C)N2C1=O (stereo not drawn) | 82 to 84
CC(=NOCCOc1ccc(CC2SC(=O)NC2=O)cc1)c1ccc2ccccc2c1 (stereo not drawn) | 138 to 139
CC(C)(C)OC(=O)N1CCC[C@H](O)[C@H](NC(=O)c2ccc(OC(C)(C)C)cc2)C1 | 132

Structure (SMILES) | melting point [°C]
CNS(=O)(=O)c1cn(C)c2c(OC)c(OC)c(OC)cc2c1=O | 184 to 186
CSc1ccc(CSc2nnc(-c3ccc4[nH]ncc4c3)o2)cc1C(F)(F)F | 184 to 185
COc1ccc(N2CCN(n3c(C)n[nH]c3=O)CC2)cc1 | 264
COc1cnc(OC)n2nc(N)nc12 | 185 to 186
COc1ccc(CC(=O)NC(NC(=NC#N)Nc2cc(F)ccc2F)C(C)(C)C)cc1OC (stereo not drawn) | 190 to 191
CCOC(=O)c1cnn(C)c1C(=O)Nc1ccn2nc(-c3cccc(F)c3)nc2c1 | 246 to 249
CCOC(=O)C1CCC2(NCCc3cc(OC)c(OC)cc32)C(C2c3cc(OC)c(OC)cc3CCN2CC)C1 (stereo not drawn) | 140 to 142
O=C1O[C@H](Cc2ccon2)CN1c1ccc(N2CCC3(CC2)OCCO3)c(F)c1 | 120 to 122
O=C1CC=C2CCC(=O)N12 | 155 to 156
CC(C)(C)CC(=O)NCc1cccs1 | 83 to 84
CN(CCNC(=O)NCCSCc1csc(NC(=N)N)n1)CCN(Cc1ccc(F)cc1)c1ccccn1 | 132
O=C(c1ccccc1)c1ccc(OC(=O)C2CC2)cc1 | 81 to 81.5
Cc1c(C)c2c(c(C)c1O)C(CO)C(C)(C)O2 (stereo not drawn) | 89 to 90
Cc1cc(-c2ccc(O)cc2)ccc1C=O | 161 to 162
CCCc1nc2ccnn2c(O)c1Cc1ccc(-c2ccccc2C(N)=O)cc1 | 264
N#Cc1c(Br)c(Br)n(C#N)c1Br | 195 to 198
CCCOc1ccccc1-c1ncc(C(=O)O)c(=O)[nH]1 | 203 to 206
COCCCC(=O)NNC(=O)N1Cc2ccccc2Oc2ccc(Cl)cc21 | 142 to 144
COC(=O)Nc1ccc(OC(=O)OC)cc1I | 106
COc1ccc(C(=O)C2CCN(C3CN(C(=O)c4ccccc4)CCC3O)CC2)cc1 (stereo not drawn) | 114 to 115
CS(=O)(=O)Nc1ccc(OC(=O)c2ccc(CCBr)cc2)cc1 | 161 to 162
Cc1cc(NS(=O)(=O)c2ccc(S(N)(=O)=O)cc2)c2[nH]cc(Br)c2c1 | 196 to 197
CC(=O)Oc1ccc(C(=O)O)cc1C(C)(C)C | 123 to 125
